Entries after “also recorded” stand apart in the source; their conditions may differ.
Key:
Neuro-2A cells = assay: Transfection efficiency of PD-nanoplexes with/without saponin, flow cytometry (GFP); format: cell-based, murine
Method: After biophysical characterisation had established that nanoplexes of the large plasmid DNA and the poly-lysine peptide were formed, cell experiments were performed: transfections. […] Without wishing to be bound by any theory, the latter effect is most likely due to insufficient complexing of DNA. […] JIMT-1-cells (DSMZ no.: ACC 589) and Neuro-2A- cells (DSMZ no.: ACC 148) were transfected with nanoplexes containing relatively large Cas9-GFP-plasmid, with and without GE1741-Co-application or SO1861-Co-application at a non-toxic concentration, when the cell which is to be transfected is considered. The transfection efficiency of all transfection conditions was measured after 48 h incubation time using flow cytometry by comparison to the negative control in terms of fluorescence intensity (for example, cells contacted with the nanoparticles in the absence of saponin). The efficiency of GE1741-based transfections and SO1861-based transfections was also compared with efficiency of Lipofectamine3000™-based transfection of the nanoparticles. Transfections were performed according to protocols commonly known and applied in the field (Clochard et al., 2020; Sama et al., 2018a; Sama et al., 2017; Sama et al., 2018b). […] Transfection efficiency of GE1741-mediated PD-transfection and SO1861-mediated PD-transfections on Neuro-2A cells and JIMT-1 cells was assessed. Cells were transfected with Cas9-GFP-DNA containing PD-nanoplexes, with and without GE1741 or SO1861 (final concentration of the saponin was 2 μg/ml). In Neuro-2A cells and JIMT-1 cells transection efficiency varied between 30% and 40%. Lipofectamin3000 served as reference. n≥3; a significant difference compared to the GE1741-free transfections or SO1861-free transfections was apparent, U-test, p≤0.05.
FIG. 4A, B. Transfection efficiency of saponin-mediated PD (Cas9-GFP)-transfections on Neuro-2A cells (FIG. 4A) and on JIMT-1-cells (FIG. 4B). Neuro-2A cells (A) and JIMT-1 cells (B) were transfected with GFP-DNA (i.e. a plasmid comprising the GFP DNA) bearing PD-nanoplexes or with Cas9-GFP-DNA bearing PD-nanoplexes, with and without the highest non-toxic saponin Co-administration (GE1741 Co-administration at 2 μg/ml or SO1861 Co-administration at 2 μg/ml). While GFP-DNA-transfections reached high efficiencies of around 70%, approximately 40% of all cells expressed GFP after Cas9-GFP-transfection. […] N≥3; *: significant difference compared to the saponin-free transfection (only nuclease), U-test.
JIMT-1-cells (human breast carcinoma) and Neuro-2A-cells (murine neuroblastoma) were transfected with nanoplexes, containing Cas9-GFP-plasmid, with and without saponin GE1741-co-application or saponin SO1861-co-application (that is to say, the saponin is added to the cell culture together with the addition of the nanoparticles comprising the nucleic acid that is to be transfected in the presence of the saponin), in a non-toxic concentration when the saponins are considered. The mass ratios for the peptide and the nucleic acid (plasmid DNA) in the nanoparticles were selected considering the dynamic light scattering (DLS) measurements and considering the aforementioned earlier assessed toxicity and earlier performed efficiency studies. The transfection efficiency of all transfection conditions was measured after 48 h incubation time via flow cytometry by comparison to the negative control in terms of fluorescence intensity (FIG. 4). […]

Neuro-2A-cells = assay: Confluence measurements during PD-transfections (Cytosmart live-cell imager); format: cell-based, murine; details: Cas9-GFP- and GFP-DNA-transfections ± saponin, up to 95 h, vs untreated negative control
Method: FIG. 5A-F. Confluence measurements of Neuro-2A-cells during PD (Cas9-GFP)-transfections ±saponin-administration. A visual monitoring of confluence was conducted during the Cas9-GFP-transfections (FIGS. 5A, E, F) and GFP-DNA-transfections (FIGS. 5A, C, D) of Neuro-2A-cells. The display of confluence during the incubation time was provided by algorithms of the Cytosmart. […] Saponin GE1741 was absent (FIGS. 5A, C, E) or present (FIGS. 5A, D, F) during the confluency assessment over time. FIG. 5B-F show the Neuro-2A cell-confluency after an incubation time of 95 h.
In the course of the transfection process of Neuro-2A-cells (seeding, transfection, incubation), the cells were fully imaged and analyzed for confluence by a live-cell imager (Cytosmart Omni). Via cloud-based algorithms, which processed the visual images, the Cytosmart provided a valuable measure of viability in terms of confluence.

CC(=O)OC1C(C)OC(OC2C(C)OC(OC(=O)C34CCC(C)(C)CC3C3=CCC5C6(C)CCC(OC7OC(C(=O)O)C(O)C(OC8OCC(O)C(O)C8O)C7OC7OC(CO)C(O)C(O)C7O)C(C)(C=O)C6CCC5(C)C3(C)CC4O)C(OC3OC(C)C(OC4OCC(O)C(OC5OCC(O)C(O)C5O)C4O)C(O)C3O)C2O)C(O)C1OC(C)=O (stereo not shown) [GE1741]
transfection efficiency (cells expressing GFP) (Neuro-2A cells; GFP-DNA PD-nanoplexes, saponin 2 μg/ml, Neuro-2A): around 70%
transfection modulating properties compared to SO1861 (Neuro-2A cells; large plasmid PD-nanoplexes, Neuro-2A and JIMT-1): slightly better transfection modulating properties; also recorded: even more improved transfection efficiency
transfection efficiency compared with Lipofectamine3000 (Neuro-2A cells; nanoplexes of relatively large DNA plasmid and poly-lysine, saponin present): higher than obtainable with current gold standard Lipofectamine3000™
toxic effects by confluence (Neuro-2A-cells): No distinct toxic effects

Reference: patent US20240279684A1, “CYTOSOLIC DELIVERY OF GENOME EDITING TOOLS” (SAPREME TECHNOLOGIES B.V., priority 2021, published 2024)
